Assay: Displacement of [3H]muscimol from GABAA receptor in Sprague-Dawley rat brain membrane`after 60 mins by TopCount microplate scintillation counting analysis
For `CC1(c2cc(O)no2)CCNCC1`, the Ki was 37000 nM and the pKi was 4.43. Compound `Oc1noc(C2CCNCC2)c1Cc1cccc2ccccc12` has a Ki of 100 nM and a pKi of 7. `Oc1noc(C2CCNCC2)c1CCCC(c1ccccc1)c1ccccc1` showed a Ki of 700 nM and a pKi of 6.16. In the case of `Oc1noc(C2CCNCC2)c1C(c1ccccc1)c1ccccc1`, the Ki is reported as 960 nM and the pKi is reported as 6.02. In the case of `Oc1noc(C2CCNCC2)c1CCc1ccc2ccccc2c1`, the Ki is reported as 490 nM and the pKi is reported as 6.31. `Oc1noc(C2CCNCC2)c1Cc1ccc2ccccc2c1Cl` gave a Ki of 16 nM and a pKi of 7.8. For `Oc1noc(C2CCNCC2)c1Cc1ccc2ccc(Br)cc2c1`, the Ki was 109 nM and the pKi was 6.96. Compound `CSc1c(Cc2c(O)noc2C2CCNCC2)ccc2ccccc12` has a Ki of 28 nM and a pKi of 7.55. In the case of `Oc1noc(C2CCNCC2)c1Cc1ccc2ccccc2c1-c1ccccc1`, the Ki is reported as 21 nM and the pKi is reported as 7.68. Compound `On1nc(Cc2cccc3ccccc23)c(C2CCNCC2)c1-c1ccccc1` has a Ki of 22 nM and a pKi of 7.66. With `On1nc(-c2ccccc2)c(C2CCNCC2)c1Cc1cccc2ccccc12` the Ki was 1500 nM and the pKi was 5.82. Compound `Oc1noc(C2CCNCC2)c1Cc1ccc2c(Br)cccc2c1` has a Ki of 80 nM and a pKi of 7.1. `Oc1noc(C2CCNCC2)c1Cc1ccc2cccc(Br)c2c1` showed a Ki of 45 nM and a pKi of 7.35. `Oc1noc(C2CCNCC2)c1-c1cccc2ccccc12` gave a Ki of 820 nM and a pKi of 6.09. `N#Cc1c(Cc2c(O)noc2C2CCNCC2)ccc2ccccc12` showed a Ki of 28 nM and a pKi of 7.55. `Oc1noc(C2CCNCC2)c1Cc1ccc2ccccc2c1F` showed a Ki of 19 nM and a pKi of 7.72. `Oc1noc(C2CCNCC2)c1-c1ccc2ccccc2c1` gave a Ki of 36 nM and a pKi of 7.44.
